Assay results: patent US9617267B2, “Compounds and methods for kinase modulation, and indications therefor” (Plexxikon Inc., priority 2009, dated 2017)
Where two headings read alike, the source gives them in different places.

Key:
[1] = test system: B-Raf; test: B-Raf kinase activity biochemical assay (AlphaScreen, biotin-MEK1 phosphorylation); conditions: for Biochemical activity ratio B/V600E: ratio of IC50 B-Raf / B-Raf V600E; for Biochemical activity ratio B/C: ratio of IC50 B-Raf / c-Raf-1
Method: (§1) Compounds to be tested are diluted in dimethyl sulfoxide to a concentration of 0.1 mM. These are serially diluted 15 μL into 30 μL of dimethyl sulfoxide seven times in 96 well plates for a total of 8 dilution points, and for each dilution point 1 μL is added to a well of an assay plate. […] The reaction is started with addition of 10 μL of 200 μM ATP (i.e. final 100 μM ATP). After incubation of the kinase reaction for 45 minutes at room temperature, 5 μL/well of Stop Solution is added (25 mM Hepes pH 7.5, 100 mM EDTA, 0.01% BSA with donor beads (Streptavidin coated beads, Perkin Elmer), acceptor beads (Protein A coated, Perkin Elmer), and anti phosphor MEK1/2 antibody (CellSignal), each at final concentration 10 μg/mL). The plates are incubated for 3 hours at room temperature and read on Envision reader (Perkin Elmer). […] The signal vs. compound concentration is used to determine the IC50.

[2] = biological target: B-Raf (Homo sapiens (Human), UniProt P15056); test: as above; conditions: B-Raf
Method: as §1

[3] = biological target: B-Raf V600E (Homo sapiens (Human), UniProt P15056, V600E); test: B-Raf V600E kinase activity biochemical assay (AlphaScreen, biotin-MEK1 phosphorylation); conditions: for IC50: B-Raf V600E; for Biochemical activity ratio V600E/C: ratio of IC50 B-Raf V600E / c-Raf-1
Method: as §1

[4] = biological target: CYP2D6 (Homo sapiens (Human), UniProt P10635); test: CYP enzyme inhibition, fluorescent substrate (AMMC); format: in vitro ADME; conditions: read-out: Cyp IC50 2D6
Method: (§2) CYP (Cytochrome P450) enzymes are the major drug metabolizing enzymes present in the liver. The inhibition of CYP enzyme activity (IC50) for each of CYP1A2, CYP2C19, CYP2C9, CYP2D6, CYP3A4(BFC) and CYP3A4(BQ) is determined for compounds, where inhibition of metabolism of a known substrate leads to a decrease in the fluorescence of the metabolized product. The fluorescence of the product is monitored as a function of compound concentration.
(§3) Compounds are dissolved in dimethyl sulfoxide to a concentration of 100 mM. These are diluted 1 μL into 82 μL of acetonitrile. An 11 μL aliquot of this solution is then added to 204 μL of cofactor mix (1.3% NADPH Regeneration system Solution A, 1.04% NADPH Regeneration system Solution B from BD Biosciences, 5% acetonitrile and 0.05% dimethyl sulfoxide). These are then serially diluted 1:1 (160 μL to 160 μL co-factor mix) for a total of 10 points. A 10 μL aliquot of this final mixture is dispensed into 384 well assay plates and incubated for 10 minutes at 37° C. Enzyme and substrate mix (10 μL; 0.5 pmol CYP1A2/5 μM CEC; 1.0 pmol CYP2C9/75 μM MFC; 0.5 pmol CYP2C19/25 μM CEC; 1.5 pmol CYP2D6/1.5 μM AMMC; 1.0 pmol CYP3A4/50 μM BFC; or 1.0 pmol CYP3A4/40 μM BQ) is added to these assay plates. Assay plates are incubated at 37° C. (CYP1A2-15 min; CYP2C9-45 min; CYP2C19, 2D6 and 3A4-30 min) and read in a Tecan Safire 2 plate reader (CYP1A2, 2C19 and 3A4 409 ex/460 em; CYP2C9 and 2D6 409 ex/530 em). The signal versus compound concentration is used to determine the IC50. The enzymes and substrates for this assay are obtained from BD Biosciences.

[5] = Relative solubility by turbidity threshold concentration in aqueous buffers (pH 1.5, 4.5, 6.8, 7.4); format: physicochemical; conditions: for turbidity threshold (L, M, H) 1.4: pH 1.4 [sic] (method: SGF pH 1.5); for turbidity threshold (L, M, H) 4.5: pH 4.5 (SIF); for turbidity threshold (L, M, H) 6.8: pH 6.8 (SIF); for turbidity threshold (L, M, H) 7.4: pH 7.4 (HEPES)
In short: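 Solubility class (high >250 μM, moderate 31.3–250 μM, low <31.3 μM) comes from the concentration where absorbance reaches a 0.01 threshold, averaged across 490/535/650 nm. Samples were compound dilutions from DMSO stock, 1 μL into 99 μL buffer at pH 1.5, 4.5, 6.8 or 7.4.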

[6] = biological target: CYP3A4(BFC) (Homo sapiens (Human), UniProt P08684); test: CYP enzyme inhibition, fluorescent substrate BFC
Method: as §2
(§4) Compounds are dissolved in dimethyl sulfoxide to a concentration of 100 mM. These are diluted 1 μL into 82 μL of acetonitrile. […] These are then serially diluted 1:1 (160 μL to 160 μL co-factor mix) for a total of 10 points. A 10 μL aliquot of this final mixture is dispensed into 384 well assay plates and incubated for 10 minutes at 37° C. […] Assay plates are incubated at 37° C. […] The signal versus compound concentration is used to determine the IC50. The enzymes and substrates for this assay are obtained from BD Biosciences.

[7] = biological target: CYP2C19 (Homo sapiens (Human), UniProt P33261); test: CYP enzyme inhibition, fluorescent substrate (CEC); conditions: read-out: Cyp IC50 2C19; CYP2C19, substrate CEC
Method: as §2, §4

[8] = biological target: CYP1A2 (Homo sapiens (Human), UniProt P05177); test: CYP enzyme inhibition, fluorescent substrate (CEC); conditions: human, 15 min
Method: as §2, §3

[9] = biological target: CYP2C9 (Homo sapiens (Human), UniProt P11712); test: CYP enzyme inhibition, fluorescent substrate (MFC)
Method: as §2, §4

[10] = biological target: c-Raf-1 (Homo sapiens, UniProt P04049); test: c-Raf-1 kinase activity biochemical assay (AlphaScreen, biotin-MEK1 phosphorylation)
Method: as §1

[11] = read-out: Cyp IC50 2C9, CYP2C9, substrate MFC
[12] = read-out: Cyp IC50 3A4(BFC), CYP3A4, substrate BFC

Sequence of B-Raf (Homo sapiens (Human), UniProt P15056) (P15056 whole entry): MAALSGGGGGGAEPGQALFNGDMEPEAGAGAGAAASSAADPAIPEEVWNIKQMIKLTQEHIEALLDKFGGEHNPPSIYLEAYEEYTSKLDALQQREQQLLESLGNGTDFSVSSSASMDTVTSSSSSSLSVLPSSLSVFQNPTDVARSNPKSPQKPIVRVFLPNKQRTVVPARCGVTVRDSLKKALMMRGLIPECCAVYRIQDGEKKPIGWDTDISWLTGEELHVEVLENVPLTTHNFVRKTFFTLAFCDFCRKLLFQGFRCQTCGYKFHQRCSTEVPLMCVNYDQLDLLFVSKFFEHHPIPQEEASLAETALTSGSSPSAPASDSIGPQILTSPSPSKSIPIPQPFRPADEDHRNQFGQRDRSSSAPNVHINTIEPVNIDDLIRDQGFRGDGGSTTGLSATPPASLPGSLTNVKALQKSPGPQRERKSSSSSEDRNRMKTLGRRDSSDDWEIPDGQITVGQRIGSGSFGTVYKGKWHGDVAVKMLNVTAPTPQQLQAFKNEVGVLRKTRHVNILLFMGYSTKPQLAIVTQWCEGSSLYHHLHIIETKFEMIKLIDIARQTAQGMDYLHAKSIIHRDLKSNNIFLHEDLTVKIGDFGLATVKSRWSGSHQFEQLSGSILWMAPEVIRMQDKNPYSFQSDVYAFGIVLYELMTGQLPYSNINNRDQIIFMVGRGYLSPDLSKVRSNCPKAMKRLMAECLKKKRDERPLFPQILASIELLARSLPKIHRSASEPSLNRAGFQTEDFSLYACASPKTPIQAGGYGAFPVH
Sequence of c-Raf-1 (P04049 whole entry, looked up): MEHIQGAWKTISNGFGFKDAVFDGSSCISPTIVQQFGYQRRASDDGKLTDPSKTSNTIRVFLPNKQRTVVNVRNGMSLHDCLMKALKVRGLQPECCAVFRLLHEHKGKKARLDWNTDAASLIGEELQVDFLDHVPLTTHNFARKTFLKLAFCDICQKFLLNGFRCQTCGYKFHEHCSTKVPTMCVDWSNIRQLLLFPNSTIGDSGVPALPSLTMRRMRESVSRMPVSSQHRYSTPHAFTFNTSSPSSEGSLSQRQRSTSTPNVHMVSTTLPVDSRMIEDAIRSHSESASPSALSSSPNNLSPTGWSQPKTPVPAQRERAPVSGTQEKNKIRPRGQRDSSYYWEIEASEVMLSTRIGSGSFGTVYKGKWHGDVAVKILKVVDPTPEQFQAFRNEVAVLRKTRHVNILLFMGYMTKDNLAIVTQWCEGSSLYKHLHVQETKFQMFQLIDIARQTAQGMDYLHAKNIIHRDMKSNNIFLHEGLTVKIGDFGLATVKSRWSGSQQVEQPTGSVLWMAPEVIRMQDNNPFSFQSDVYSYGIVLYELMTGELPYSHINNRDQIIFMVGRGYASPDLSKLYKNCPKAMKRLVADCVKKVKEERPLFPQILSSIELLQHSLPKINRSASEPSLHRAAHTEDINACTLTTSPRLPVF
Sequence of CYP2C19 (P33261 whole entry): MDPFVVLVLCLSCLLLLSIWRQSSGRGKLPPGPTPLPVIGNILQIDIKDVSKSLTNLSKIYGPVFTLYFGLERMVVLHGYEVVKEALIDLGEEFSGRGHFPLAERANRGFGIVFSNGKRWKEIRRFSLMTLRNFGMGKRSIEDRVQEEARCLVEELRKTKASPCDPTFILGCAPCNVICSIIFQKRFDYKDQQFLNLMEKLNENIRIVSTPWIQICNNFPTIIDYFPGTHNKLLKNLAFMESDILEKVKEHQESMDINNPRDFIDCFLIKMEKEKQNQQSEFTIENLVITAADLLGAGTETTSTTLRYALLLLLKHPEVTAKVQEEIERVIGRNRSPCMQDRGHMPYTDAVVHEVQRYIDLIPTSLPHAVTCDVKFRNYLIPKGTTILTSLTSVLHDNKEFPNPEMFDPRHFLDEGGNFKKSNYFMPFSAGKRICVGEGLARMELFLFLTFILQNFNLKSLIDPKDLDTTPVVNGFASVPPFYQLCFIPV
Sequence of CYP1A2 (P05177 whole entry): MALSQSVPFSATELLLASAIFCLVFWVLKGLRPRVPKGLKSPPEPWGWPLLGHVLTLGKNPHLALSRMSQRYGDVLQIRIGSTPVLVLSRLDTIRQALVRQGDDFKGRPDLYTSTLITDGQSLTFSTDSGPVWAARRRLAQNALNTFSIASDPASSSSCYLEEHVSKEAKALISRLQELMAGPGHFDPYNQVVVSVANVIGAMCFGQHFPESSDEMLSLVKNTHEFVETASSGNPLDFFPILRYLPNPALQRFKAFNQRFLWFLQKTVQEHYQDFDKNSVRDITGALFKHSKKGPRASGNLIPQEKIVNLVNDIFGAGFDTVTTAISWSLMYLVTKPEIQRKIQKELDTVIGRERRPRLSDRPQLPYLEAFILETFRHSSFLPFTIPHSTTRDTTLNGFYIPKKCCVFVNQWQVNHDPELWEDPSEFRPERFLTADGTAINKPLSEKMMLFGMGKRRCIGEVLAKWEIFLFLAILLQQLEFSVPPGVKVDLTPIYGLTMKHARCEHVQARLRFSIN
Sequence of CYP2C9 (P11712 whole entry): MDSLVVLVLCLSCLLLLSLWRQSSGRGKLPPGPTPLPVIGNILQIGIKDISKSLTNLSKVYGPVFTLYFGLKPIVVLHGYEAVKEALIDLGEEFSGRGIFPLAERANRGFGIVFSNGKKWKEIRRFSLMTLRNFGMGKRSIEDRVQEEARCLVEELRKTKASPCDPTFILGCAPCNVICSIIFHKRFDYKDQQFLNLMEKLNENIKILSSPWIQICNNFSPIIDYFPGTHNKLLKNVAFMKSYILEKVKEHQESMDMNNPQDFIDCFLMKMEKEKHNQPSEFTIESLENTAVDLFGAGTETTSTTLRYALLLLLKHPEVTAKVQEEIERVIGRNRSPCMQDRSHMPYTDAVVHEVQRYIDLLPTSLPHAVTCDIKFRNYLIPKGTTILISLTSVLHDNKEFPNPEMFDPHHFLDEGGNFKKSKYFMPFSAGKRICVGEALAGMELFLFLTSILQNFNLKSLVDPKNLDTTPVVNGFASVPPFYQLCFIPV
Sequence of CYP3A4(BFC) (P08684 whole entry): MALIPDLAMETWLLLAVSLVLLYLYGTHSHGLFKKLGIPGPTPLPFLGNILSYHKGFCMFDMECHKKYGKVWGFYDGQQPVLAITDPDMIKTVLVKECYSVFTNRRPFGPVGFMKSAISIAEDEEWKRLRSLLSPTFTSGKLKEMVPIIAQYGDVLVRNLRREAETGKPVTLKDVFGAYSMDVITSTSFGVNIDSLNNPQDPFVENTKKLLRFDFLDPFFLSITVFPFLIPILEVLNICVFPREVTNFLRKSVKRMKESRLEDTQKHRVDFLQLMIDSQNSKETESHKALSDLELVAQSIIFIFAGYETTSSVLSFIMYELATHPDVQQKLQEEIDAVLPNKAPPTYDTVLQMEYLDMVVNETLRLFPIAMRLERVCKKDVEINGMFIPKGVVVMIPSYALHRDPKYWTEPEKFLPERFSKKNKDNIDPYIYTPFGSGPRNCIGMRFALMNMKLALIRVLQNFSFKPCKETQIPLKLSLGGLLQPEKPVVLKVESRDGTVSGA
Sequence of B-Raf V600E (P15056 whole entry V600E): as the sequence (P15056 whole entry) above, with V600E counted along it
Sequence of CYP2D6 (P10635 whole entry): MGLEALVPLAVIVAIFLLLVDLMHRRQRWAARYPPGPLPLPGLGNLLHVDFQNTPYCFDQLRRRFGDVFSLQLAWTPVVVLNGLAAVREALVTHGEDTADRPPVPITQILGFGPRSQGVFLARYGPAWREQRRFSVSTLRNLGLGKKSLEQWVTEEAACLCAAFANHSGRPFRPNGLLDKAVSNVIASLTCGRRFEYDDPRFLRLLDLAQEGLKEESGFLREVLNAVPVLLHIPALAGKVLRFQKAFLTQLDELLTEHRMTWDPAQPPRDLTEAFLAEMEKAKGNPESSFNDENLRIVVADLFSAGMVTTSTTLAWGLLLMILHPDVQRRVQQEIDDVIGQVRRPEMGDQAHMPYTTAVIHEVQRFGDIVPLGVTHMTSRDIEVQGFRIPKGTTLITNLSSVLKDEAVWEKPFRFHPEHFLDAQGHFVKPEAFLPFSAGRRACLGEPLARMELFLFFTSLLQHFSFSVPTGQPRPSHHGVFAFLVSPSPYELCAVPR

Row | Structure (SMILES) | Biochemical activity ratio B/V600E [1] | Biochemical activity ratio B/C [1] | IC50 [2] [µM] | IC50 [3] [µM] | Biochemical activity ratio V600E/C [3] | IC50 [4] [µM] | turbidity threshold (L, M, H) 1.4 [5] | turbidity threshold (L, M, H) 4.5 [5] | turbidity threshold (L, M, H) 6.8 [5] | IC50 [6] [µM] | IC50 [7] [µM] | IC50 [8] [µM] | IC50 [9, 11] [µM] | IC50 [10] [µM] | turbidity threshold (L, M, H) 7.4 [5] | IC50 [6, 12] [µM] | IC50 [9] [µM]
1 | COc1ncnc2[nH]cc(C(=O)c3c(F)ccc(NS(=O)(=O)c4cc(C)cc(C)c4)c3F)c12 [P-1025, N-[2,4-Difluoro-3-(4-methoxy-7H-pyrrolo[2,3-d]pyrimidine-5-carbonyl)-phenyl]-3,5-dimethyl-benzenesulfonamide] | 0.1-10 | >10 | > 0.1 | > 0.1 | 0.1-10 | > 10 | M (moderate solubility if the threshold concentration is 31.3 μM to 250 μM) | L (low solubility if the threshold concentration is <31.3 μM) | M (moderate solubility if the threshold concentration is 31.3 μM to 250 μM) | 5 to 10 | > 10 | > 10 | > 10 | < 0.1 | – | – | –
2 | CNc1ncnc2[nH]cc(C(=O)c3c(F)ccc(NS(=O)(=O)c4ccc(C(F)(F)F)cc4)c3F)c12 [P-1026, N-[2,4-Difluoro-3-(4-methylamino-7H-pyrrolo[2,3-d]pyrimidine-5-carbonyl)-phenyl]-4-trifluoromethyl-benzenesulfonamide] | 0.1-10 | >10 | > 0.1 | > 0.1 | >10 | > 10 | – | – | M (moderate solubility if the threshold concentration is 31.3 μM to 250 μM) | – | > 10 | > 10 | > 10 | < 0.1 | M (moderate solubility if the threshold concentration is 31.3 μM to 250 μM) | > 10 | –
3 | Cc1cc(C)cc(S(=O)(=O)Nc2ccc(F)c(C(=O)c3c[nH]c4ncnc(C)c34)c2F)c1 [P-1027, N-[2,4-Difluoro-3-(4-methyl-7H-pyrrolo[2,3-d]pyrimidine-5-carbonyl)-phenyl]-3,5-dimethyl-benzenesulfonamide] | 0.1-10 | >10 | > 0.1 | > 0.1 | 0.1-10 | > 10 | – | L (low solubility if the threshold concentration is <31.3 μM) | M (moderate solubility if the threshold concentration is 31.3 μM to 250 μM) | – | > 10 | > 10 | > 10 | < 0.1 | – | > 10 | –
4 | CC(C)COc1ncnc2[nH]cc(C(=O)c3c(F)ccc(NS(=O)(=O)c4ccc(C(F)(F)F)cc4)c3F)c12 [P-1028, N-[2,4-Difluoro-3-(4-isobutoxy-7H-pyrrolo[2,3-d]pyrimidine-5-carbonyl)-phenyl]-4-trifluoromethyl-benzenesulfonamide] | 0.1-10 | >10 | > 0.1 | > 0.1 | >10 | > 10 | M (moderate solubility if the threshold concentration is 31.3 μM to 250 μM) | L (low solubility if the threshold concentration is <31.3 μM) | L (low solubility if the threshold concentration is <31.3 μM) | – | > 10 | > 10 | – | < 0.1 | M (moderate solubility if the threshold concentration is 31.3 μM to 250 μM) | > 10 | 5 to 10
